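Step 1: Grow cells in 96-well plates. Step 2: Expose to compound for 48 hours at 5 concentrations. Step 3: Interpolate endpoints linearly; if unreached, use highest concentration. Definition used: TGI = concentration required for complete inhibition of growth.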
Tested on: SK-MEL-2 melanoma
Test: growth of human tumour cells (NCI), 48 h

Q: `COc1ccccc1N=NC(C(=O)c1ccccc1)C(=O)c1ccccc1` was tested. Which TGI did it give?
A: The TGI was 53.4 µM.

Q: With `CC(=O)O[C@]1(C)CCC2C(C)C(=O)OC2C2C(C)[C@@H](O)CC21` (stereo partly drawn) as the compound, how does the TGI read?
A: Its TGI is 58.3 µM.

Q: How did the TGI turn out when `CCOC(=O)/C=C1/Oc2ccccc2C1(C)O` (stereo not drawn) was run?
A: The TGI was greater than 100 µM.

Q: With `Cc1ccc(-c2cc(=O)c3cc4c(cc3[nH]2)OCO4)cc1` as the compound, how does the TGI read?
A: The TGI was 14.2 µM.

Q: `CCOC(=O)c1c(NNc2ccccc2)nc2ccccc2c1-c1ccccc1` was tested. Which TGI did it give?
A: Its TGI is 32.1 µM.

Tested on: TK-10 renal
Test: growth of human tumour cells (NCI), 48 h

Q: How did the TGI turn out when `COc1ccccc1N=NC(C(=O)c1ccccc1)C(=O)c1ccccc1` was run?
A: Its TGI is greater than 100 µM.

Q: With `CC(=O)O[C@]1(C)CCC2C(C)C(=O)OC2C2C(C)[C@@H](O)CC21` (stereo partly drawn) as the compound, how does the TGI read?
A: Its TGI is greater than 100 µM.

Q: How did the TGI turn out when `CCOC(=O)/C=C1/Oc2ccccc2C1(C)O` (stereo not drawn) was run?
A: Its TGI is greater than 100 µM.

Q: With `Cc1ccc(-c2cc(=O)c3cc4c(cc3[nH]2)OCO4)cc1` as the compound, how does the TGI read?
A: The TGI was greater than 60.6 µM.

Q: Which TGI does the source give for `CCOC(=O)c1c(NNc2ccccc2)nc2ccccc2c1-c1ccccc1` here?
A: The TGI was greater than 100 µM.

Tested on: M19-MEL melanoma
Test: growth of human tumour cells (NCI), 48 h

Q: For `COc1ccccc1N=NC(C(=O)c1ccccc1)C(=O)c1ccccc1`, which TGI is on record?
A: The TGI was 41.3 µM.

Q: How did the TGI turn out when `CC(=O)O[C@]1(C)CCC2C(C)C(=O)OC2C2C(C)[C@@H](O)CC21` (stereo partly drawn) was run?
A: Its TGI is 57.4 µM.

Q: Which TGI does the source give for `CCOC(=O)/C=C1/Oc2ccccc2C1(C)O` (stereo not drawn) here?
A: The TGI was greater than 100 µM.

Q: With `Cc1ccc(-c2cc(=O)c3cc4c(cc3[nH]2)OCO4)cc1` as the compound, how does the TGI read?
A: Its TGI is greater than 100 µM.

Q: For `CCOC(=O)c1c(NNc2ccccc2)nc2ccccc2c1-c1ccccc1`, which TGI is on record?
A: Its TGI is 52.5 µM.

Tested on: SR leukemia
Test: growth of human tumour cells (NCI), 48 h

Q: For `CC(=O)O[C@]1(C)CCC2C(C)C(=O)OC2C2C(C)[C@@H](O)CC21` (stereo partly drawn), which TGI is on record?
A: Its TGI is greater than 100 µM.

Q: How did the TGI turn out when `Cc1ccc(-c2cc(=O)c3cc4c(cc3[nH]2)OCO4)cc1` was run?
A: Its TGI is greater than 40.4 µM.

Q: How did the TGI turn out when `CCOC(=O)c1c(NNc2ccccc2)nc2ccccc2c1-c1ccccc1` was run?
A: Its TGI is 56.4 µM.

Tested on: KM12 colon
Test: growth of human tumour cells (NCI), 48 h

Q: With `COc1ccccc1N=NC(C(=O)c1ccccc1)C(=O)c1ccccc1` as the compound, how does the TGI read?
A: Its TGI is greater than 100 µM.

Q: Which TGI does the source give for `CC(=O)O[C@]1(C)CCC2C(C)C(=O)OC2C2C(C)[C@@H](O)CC21` (stereo partly drawn) here?
A: The TGI was greater than 100 µM.

Q: `CCOC(=O)/C=C1/Oc2ccccc2C1(C)O` (stereo not drawn) was tested. Which TGI did it give?
A: The TGI was greater than 100 µM.

Q: For `Cc1ccc(-c2cc(=O)c3cc4c(cc3[nH]2)OCO4)cc1`, which TGI is on record?
A: The TGI was greater than 100 µM.

Q: For `CCOC(=O)c1c(NNc2ccccc2)nc2ccccc2c1-c1ccccc1`, which TGI is on record?
A: The TGI was greater than 100 µM.

Tested on: HOP-62 NSCLC
Test: growth of human tumour cells (NCI), 48 h

Q: For `COc1ccccc1N=NC(C(=O)c1ccccc1)C(=O)c1ccccc1`, which TGI is on record?
A: Its TGI is 52.1 µM.

Q: `CC(=O)O[C@]1(C)CCC2C(C)C(=O)OC2C2C(C)[C@@H](O)CC21` (stereo partly drawn) was tested. Which TGI did it give?
A: The TGI was 45.2 µM.

Q: With `CCOC(=O)/C=C1/Oc2ccccc2C1(C)O` (stereo not drawn) as the compound, how does the TGI read?
A: The TGI was greater than 100 µM.

Q: `Cc1ccc(-c2cc(=O)c3cc4c(cc3[nH]2)OCO4)cc1` was tested. Which TGI did it give?
A: Its TGI is 20.5 µM.

Q: For `CCOC(=O)c1c(NNc2ccccc2)nc2ccccc2c1-c1ccccc1`, which TGI is on record?
A: The TGI was 59.3 µM.

Tested on: A498 renal
Test: growth of human tumour cells (NCI), 48 h

Q: Which TGI does the source give for `COc1ccccc1N=NC(C(=O)c1ccccc1)C(=O)c1ccccc1` here?
A: Its TGI is greater than 100 µM.

Q: With `CC(=O)O[C@]1(C)CCC2C(C)C(=O)OC2C2C(C)[C@@H](O)CC21` (stereo partly drawn) as the compound, how does the TGI read?
A: Its TGI is greater than 100 µM.

Q: For `CCOC(=O)/C=C1/Oc2ccccc2C1(C)O` (stereo not drawn), which TGI is on record?
A: Its TGI is greater than 100 µM.

Q: Which TGI does the source give for `Cc1ccc(-c2cc(=O)c3cc4c(cc3[nH]2)OCO4)cc1` here?
A: Its TGI is 10.5 µM.

Q: With `CCOC(=O)c1c(NNc2ccccc2)nc2ccccc2c1-c1ccccc1` as the compound, how does the TGI read?
A: The TGI was greater than 100 µM.

Tested on: HOP-92 NSCLC
Test: growth of human tumour cells (NCI), 48 h

Q: Which TGI does the source give for `CC(=O)O[C@]1(C)CCC2C(C)C(=O)OC2C2C(C)[C@@H](O)CC21` (stereo partly drawn) here?
A: The TGI was 91.3 µM.

Q: How did the TGI turn out when `CCOC(=O)/C=C1/Oc2ccccc2C1(C)O` (stereo not drawn) was run?
A: The TGI was greater than 100 µM.

Q: How did the TGI turn out when `Cc1ccc(-c2cc(=O)c3cc4c(cc3[nH]2)OCO4)cc1` was run?
A: The TGI was 71.2 µM.

Q: `CCOC(=O)c1c(NNc2ccccc2)nc2ccccc2c1-c1ccccc1` was tested. Which TGI did it give?
A: The TGI was greater than 100 µM.

Tested on: OVCAR-5 ovarian
Test: growth of human tumour cells (NCI), 48 h

Q: How did the TGI turn out when `COc1ccccc1N=NC(C(=O)c1ccccc1)C(=O)c1ccccc1` was run?
A: Its TGI is 71.5 µM.

Q: `CC(=O)O[C@]1(C)CCC2C(C)C(=O)OC2C2C(C)[C@@H](O)CC21` (stereo partly drawn) was tested. Which TGI did it give?
A: Its TGI is greater than 100 µM.

Q: `CCOC(=O)/C=C1/Oc2ccccc2C1(C)O` (stereo not drawn) was tested. Which TGI did it give?
A: The TGI was greater than 100 µM.

Q: Which TGI does the source give for `Cc1ccc(-c2cc(=O)c3cc4c(cc3[nH]2)OCO4)cc1` here?
A: Its TGI is greater than 82.3 µM.

Q: With `CCOC(=O)c1c(NNc2ccccc2)nc2ccccc2c1-c1ccccc1` as the compound, how does the TGI read?
A: The TGI was greater than 100 µM.

Tested on: NCI-H226 lung
Test: growth of human tumour cells (NCI), 48 h

Q: For `COc1ccccc1N=NC(C(=O)c1ccccc1)C(=O)c1ccccc1`, which TGI is on record?
A: The TGI was 35.9 µM.

Q: For `CC(=O)O[C@]1(C)CCC2C(C)C(=O)OC2C2C(C)[C@@H](O)CC21` (stereo partly drawn), which TGI is on record?
A: The TGI was greater than 100 µM.

Q: With `CCOC(=O)/C=C1/Oc2ccccc2C1(C)O` (stereo not drawn) as the compound, how does the TGI read?
A: The TGI was greater than 100 µM.

Q: For `Cc1ccc(-c2cc(=O)c3cc4c(cc3[nH]2)OCO4)cc1`, which TGI is on record?
A: Its TGI is 8.66 µM.

Q: How did the TGI turn out when `CCOC(=O)c1c(NNc2ccccc2)nc2ccccc2c1-c1ccccc1` was run?
A: The TGI was 92 µM.

Tested on: SNB-78 CNS
Test: growth of human tumour cells (NCI), 48 h

Q: With `CC(=O)O[C@]1(C)CCC2C(C)C(=O)OC2C2C(C)[C@@H](O)CC21` (stereo partly drawn) as the compound, how does the TGI read?
A: The TGI was greater than 100 µM.

Q: `CCOC(=O)/C=C1/Oc2ccccc2C1(C)O` (stereo not drawn) was tested. Which TGI did it give?
A: Its TGI is greater than 100 µM.

Q: `CCOC(=O)c1c(NNc2ccccc2)nc2ccccc2c1-c1ccccc1` was tested. Which TGI did it give?
A: Its TGI is 88.6 µM.

Tested on: RXF 393 renal
Test: growth of human tumour cells (NCI), 48 h

Q: With `CC(=O)O[C@]1(C)CCC2C(C)C(=O)OC2C2C(C)[C@@H](O)CC21` (stereo partly drawn) as the compound, how does the TGI read?
A: Its TGI is 82.5 µM.

Q: `CCOC(=O)/C=C1/Oc2ccccc2C1(C)O` (stereo not drawn) was tested. Which TGI did it give?
A: Its TGI is greater than 100 µM.

Q: Which TGI does the source give for `Cc1ccc(-c2cc(=O)c3cc4c(cc3[nH]2)OCO4)cc1` here?
A: Its TGI is 9.94 µM.

Q: With `CCOC(=O)c1c(NNc2ccccc2)nc2ccccc2c1-c1ccccc1` as the compound, how does the TGI read?
A: The TGI was 86.3 µM.

Tested on: MALME-3M melanoma
Test: growth of human tumour cells (NCI), 48 h

Q: `COc1ccccc1N=NC(C(=O)c1ccccc1)C(=O)c1ccccc1` was tested. Which TGI did it give?
A: The TGI was 88.9 µM.

Q: How did the TGI turn out when `CC(=O)O[C@]1(C)CCC2C(C)C(=O)OC2C2C(C)[C@@H](O)CC21` (stereo partly drawn) was run?
A: The TGI was greater than 100 µM.

Q: How did the TGI turn out when `CCOC(=O)/C=C1/Oc2ccccc2C1(C)O` (stereo not drawn) was run?
A: Its TGI is greater than 100 µM.

Q: For `Cc1ccc(-c2cc(=O)c3cc4c(cc3[nH]2)OCO4)cc1`, which TGI is on record?
A: The TGI was greater than 33.4 µM.

Q: Which TGI does the source give for `CCOC(=O)c1c(NNc2ccccc2)nc2ccccc2c1-c1ccccc1` here?
A: Its TGI is 64.3 µM.

Tested on: UACC-62 melanoma
Test: growth of human tumour cells (NCI), 48 h

Q: For `COc1ccccc1N=NC(C(=O)c1ccccc1)C(=O)c1ccccc1`, which TGI is on record?
A: Its TGI is 52.3 µM.

Q: Which TGI does the source give for `CC(=O)O[C@]1(C)CCC2C(C)C(=O)OC2C2C(C)[C@@H](O)CC21` (stereo partly drawn) here?
A: The TGI was 89.5 µM.

Q: For `CCOC(=O)/C=C1/Oc2ccccc2C1(C)O` (stereo not drawn), which TGI is on record?
A: Its TGI is greater than 100 µM.

Q: `Cc1ccc(-c2cc(=O)c3cc4c(cc3[nH]2)OCO4)cc1` was tested. Which TGI did it give?
A: Its TGI is greater than 39.1 µM.

Q: For `CCOC(=O)c1c(NNc2ccccc2)nc2ccccc2c1-c1ccccc1`, which TGI is on record?
A: Its TGI is 32 µM.

Tested on: SNB-75 CNS
Test: growth of human tumour cells (NCI), 48 h

Q: `COc1ccccc1N=NC(C(=O)c1ccccc1)C(=O)c1ccccc1` was tested. Which TGI did it give?
A: The TGI was 82.3 µM.

Q: Which TGI does the source give for `CC(=O)O[C@]1(C)CCC2C(C)C(=O)OC2C2C(C)[C@@H](O)CC21` (stereo partly drawn) here?
A: Its TGI is greater than 100 µM.

Q: For `CCOC(=O)/C=C1/Oc2ccccc2C1(C)O` (stereo not drawn), which TGI is on record?
A: Its TGI is greater than 100 µM.

Q: How did the TGI turn out when `Cc1ccc(-c2cc(=O)c3cc4c(cc3[nH]2)OCO4)cc1` was run?
A: Its TGI is 35 µM.

Source: PubChem BioAssay (NCI)
